{
  "source": "paper PMC9873984",
  "about": "“Membrane cholesterol regulates inhibition and substrate transport by the glycine transporter, GlyT2” (Life Science Alliance, 2023)",
  "tested_on": "Xenopus laevis oocytes",
  "test": "Quantification of cholesterol content of oocytes (Amplex Red)",
  "type": "cell-based",
  "conditions": "15 mM for 30 min at 32°C; normalized to control oocytes",
  "experimental": "The cell was then unclamped and removed from the electrophysiology rig and placed in an incubator at 32°C in a solution containing 15 mM MβCD for 30 min. The oocyte was then replaced in the electrophysiology rig and washed for 10 min in recording buffer, the voltage clamp was re-established, and the glycine transport currents were remeasured. […] Under these conditions, MβCD caused a 44% reduction in membrane cholesterol content, which is consistent with previous studies in oocytes (Fig 4) ([Santiago et al, 2001]; [Sadler & Jacobs, 2004]).\nFigure 4. Cholesterol levels of control and MβCD-treated Xenopus laevis oocytes. Groups of six oocytes were incubated in 0 mM (control) or 15 mM MβCD for 30 min at 32°C. After incubation, oocytes were lysed in 1% Triton X-100 by vortexing and manually disrupting the membranes with forceps. Cell lysates were centrifuged, and the cholesterol content of the supernatant was quantified using the Amplex Red method. […]\nControl and MβCD-treated oocytes were lysed in 1% Triton X-100 (Sigma-Aldrich) by vortexing and manually disrupting the membranes with forceps. […] The supernatant was then treated in accordance with the manufacturer’s protocol for the Amplex Red Cholesterol Assay Kit (Thermo Fisher Scientific) to quantify differences in cholesterol content.",
  "data": [
    {"substance": "methyl-β-cyclodextrin [MβCD]", "values": [
      {"measurement": "Reduction in membrane cholesterol content", "value": 44, "unit": "%"}
    ]}
  ]
}
